# Measured values taken from patent US20110039860A1, “SOLUBLE EPOXIDE HYDROLASE INHIBITORS, COMPOSITIONS CONTAINING SUCH COMPOUNDS AND METHODS OF TREATMENT” (priority 2008, published 2011).
# Target: T1, human sEH enzyme (Homo sapiens, UniProt P34913)
# T1 construct: His-tag (pET100 vector) (N, cleaved yes); made in house; host or cells: E. coli
# T1 sequence (P34913 1-555): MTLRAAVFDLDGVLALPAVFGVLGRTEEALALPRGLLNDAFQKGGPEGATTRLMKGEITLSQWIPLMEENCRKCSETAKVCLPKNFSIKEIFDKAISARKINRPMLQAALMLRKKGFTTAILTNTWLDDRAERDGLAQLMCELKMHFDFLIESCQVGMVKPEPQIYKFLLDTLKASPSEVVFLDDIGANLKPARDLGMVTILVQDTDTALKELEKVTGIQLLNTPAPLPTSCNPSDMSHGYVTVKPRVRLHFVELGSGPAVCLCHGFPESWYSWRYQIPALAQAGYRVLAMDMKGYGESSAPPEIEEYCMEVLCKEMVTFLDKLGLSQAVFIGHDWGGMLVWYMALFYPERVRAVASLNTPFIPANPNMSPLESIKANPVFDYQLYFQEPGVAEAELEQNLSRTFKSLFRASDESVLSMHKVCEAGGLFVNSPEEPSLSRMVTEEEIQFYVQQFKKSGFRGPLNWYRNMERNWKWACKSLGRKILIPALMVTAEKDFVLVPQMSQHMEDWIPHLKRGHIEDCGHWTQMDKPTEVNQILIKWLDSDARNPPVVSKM
# Assay: sEH human enzyme assay (fluorescence based enzyme in vitro assay)
# Format: biochemical
# Conditions: recombinant human sEH about 1 nM, fluorescence substrate S7 10 uM, 25° C.; read-out: IC50 [nM] for human sEH enzyme inhibition
# Text: Preparation of Recombinant sEH Human Enzyme
# The DNA for expressing sEH was designed based on a […] sEH cDNA, modified to optimize for expression both in E. coli and insect cells. The designed DNA fragment encodes a protein sequence that is identical to full length human sEH, and the DNA was synthesized in vitro. The DNA was then subcloned into the pET100 vector that will generate a fusion protein with an N-terminal His-tag. The recombinant protein was expressed in E. coli. The sEH enzyme was affinity purified by a Ni^++ column. His-tag was removed by Enter Kinase (EK) digestion. The purified enzyme aliquots were frozen and held at −80° C. for later use. Fluorescence Based Enzyme in vitro Assay For each assay (100 ul), an aliquot of enzymes (about 1 nM final concentration) was incubated with a fluorescence substrate, S7 (10 uM final concentration), in sEH assay buffer (25 mM HEPES, […], 0.1 mg/ml BSA) in a 96-well plate. The kinetic reaction reading (Ex330/Em465) was conducted using a plate reader, Spectra max (Molecular Devices) at 25° C.
row,Structure (SMILES),IC50 [nM]
1,"Fc1cccc(C(F)(F)F)c1-c1ccc(NCC2CCCCC2)nc1 [Compound I-1, N-(cyclohexylmethyl)-5-[2-fluoro-6-(trifluoromethyl)phenyl]pyridin-2-amine]",1
2,O=C(O)[C@H]1CC[C@H](CCNc2ccc(-c3c(F)cccc3C(F)(F)F)cn2)CC1 [Compound I-2],19
3,O=C(c1cccnc1)N1CCC(CNc2ccc(-c3ccccc3C(F)(F)F)cn2)CC1 [Compound I-4],9
4,Fc1cccc(Cl)c1CCNc1ccc(-c2c(F)cccc2C(F)(F)F)cn1 [Compound I-5],2
5,O=C(c1ccccc1C(F)(F)F)N1CCC(CNc2ccc(-c3ccccc3C(F)(F)F)cn2)CC1 [Compound I-6],3
6,FC(F)(F)c1cccnc1-c1ccc(NCC2CCCCC2)nc1 [Compound I-7],32
7,FC(F)(F)c1ccccc1-c1ccc(NCc2ccccc2)nc1 [Compound I-8],25
8,FC(F)(F)c1ccccc1-c1ccc(NCCC(c2ccccc2)c2ccccc2)nc1 [Compound I-9],832
9,FC(F)(F)c1ccccc1-c1ccc(NCc2cccc3ccccc23)nc1 [Compound I-10],31
10,Clc1ccccc1-c1ccc(NCC2CCCCC2)nc1 [Compound I-11],32
11,FC(F)(F)Oc1cccc(CNc2ccc(-c3ccccc3C(F)(F)F)cn2)c1 [Compound I-12],52
12,O=S(=O)(c1ccccc1C(F)(F)F)N1CCC(CNc2ccc(-c3ccccc3C(F)(F)F)cn2)CC1 [Compound I-13],18
13,O=C(N[C@H]1CC[C@H](CNc2ccc(-c3ccccc3C(F)(F)F)cn2)CC1)c1ccccc1C(F)(F)F [Compound I-14],7
14,CC(C)(C)OC(=O)N1CCC(CNc2ccc(-c3cnccc3C(F)(F)F)cn2)CC1 [Compound I-15],8
15,FC(F)(F)c1cc(-c2nnn[nH]2)ccc1-c1ccc(NCC2CCCCC2)nc1 [Compound I-16],53
16,FC(F)(F)c1ccccc1-c1ccc(NCC2CCCCC2)nn1 [Compound I-17],8

row,Structure (SMILES),IC50 [nM]
1,FC(F)(F)c1ccccc1-c1cnc(NCC2CCCCC2)cn1 [Compound I-18],651
2,FC(F)(F)c1ccccc1-c1ccc(NCc2cccnc2)nc1 [Compound I-19],92
3,Fc1cccc(C(F)(F)F)c1-c1ccc(NCCc2c[nH]cn2)nc1 [Compound I-20],67
4,FC(F)(F)c1ccccc1-c1ccc(NCCc2c[nH]cn2)nc1 [Compound I-21],100
5,O=C(O)C12CCC(CNc3ccc(-c4c(F)cccc4C(F)(F)F)cn3)(CC1)C2 [Compound I-22],130
6,FC(F)(F)c1ccccc1-c1ccc(NCCN2CCN(c3cccc(Cl)c3)CC2)nc1 [Compound I-23],7
7,FC(F)(F)c1ccccc1-c1ccc(NC2CCOCC2)nc1 [Compound I-24],200
8,FC(F)(F)c1ccnc(N2CCN(CCNc3ccc(-c4ccccc4C(F)(F)F)cn3)CC2)n1 [Compound I-25],26
9,FC(F)(F)c1ccccc1-c1ccc(NCC2CC2)nc1 [Compound I-26],53
10,"O=C(O)C1CCN(C(=O)c2ccc(-c3ccc(NCCc4c(F)cccc4Cl)nc3)c(C(F)(F)F)c2)CC1 [II-1, 1-[4-(6-{[2-(2-chloro-6-fluorophenyl)ethyl]amino}pyridin-3-yl)-3-(trifluoromethyl)benzoyl]piperidine-4-carboxylic acid]",200
11,O=C(O)CCCOc1ccc(-c2ccc(NCC3CCCCC3)nc2)c(C(F)(F)F)c1 [II-2],66
12,O=C(O)c1cccc(-c2ccc(-c3ccc(NCC4CCCCC4)nc3)c(C(F)(F)F)c2)c1 [II-3],5
13,O=C(NCC1CCCCC1)c1ccc(-c2ccc(NCC3CCCCC3)nc2)c(C(F)(F)F)c1 [II-4],4
14,NC(=O)c1ccc(-c2ccc(NCC3CCCCC3)nc2)c(C(F)(F)F)c1 [II-5],4
15,"FC(F)(F)c1cc(-c2cccnc2)nn1-c1ccc(NCC2CCCCC2)nc1 [III-1, N-(cyclohexylmethyl)-5-[3-pyridin-3-yl-5-(trifluoromethyl)-1H-pyrazol-1-yl]pyridin-2-amine]",3
